{"source": "patent US20240366577A1", "about": "“CONTROLLED LONG-TERM DRUG DELIVERY AND METHODS THEREOF” (THE JOHNS HOPKINS UNIVERSITY, priority 2021, published 2024)", "key": {"[1]": {"test": "in vitro release under accelerated release conditions", "format": "physicochemical", "conditions": "37° C., PBS+0.3% SDS, 2.9 mg drug, 12-day time course; amorphous vs 50 μm vs 150-200 μm crystals", "from_the_text": "After crystals visibly stopped precipitating or growing, the vessel was submerged in an ultrasonic water bath for 10-30 seconds to dislodge crystals from the vessel sidewall and break them into more a uniform size distributions, either smaller fines, for example 50 μm, or between 150-200 μm, as measured by brightfield and scanning electron microscopy, shown in FIGS. 2A-2B. Resultant product was then removed from the supernatant mother solution, dried, weighed, and stored for later use. On average, yielded crystal was approximately 40% of the starting powder. Furthermore, methods exist to quantify solubilized material, typically using optics to identify changes in light transmittance, and enabled testing of crystal stability in a range of aqueous solutions. […] To simulate cumulative drug release over time, all 3 mL supernatant volumes were removed and replaced with completely fresh release media at desired times of 1 hr, 4 hr, 6 hr, 8 hr, 10 hr, 1 day, 2 days, 5 days, 7 days, 10 days and 12 days, and 200 μL aliquots were measured in individual wells of a 96-well plate at 266 nm to determine solubilize sorafenib release, as shown in FIG. 2D.\nRelease studies were carried out under accelerated conditions in PBS with 0.3% w/v SDS in 1X PBS. […] Drug concentration in samples was measured using a UV-calibrated Tecan infinite M200 PRO. […]"}, "VE-Cdh, aSMact, Cd34": {"tested_on": "VE-Cdh, aSMact, Cd34", "test": "qPCR of retrieved tumors: VE-Cdh, aSMact, Cd34", "format": "in vivo, BALB/c mice", "conditions": "crystals, compared to daily bolus; tumors at end of study", "description": "To determine the anti-angiogenic efficacy of each sorafenib treatment group, qPCR gene expression analysis was performed on retrieved tumors at the conclusion of the study. In particular, analysis for levels of endothelial cell marker Cd31, vascular endothelial-cadherin (VE-Cdh), smooth muscle pericyte marker alpha Smooth Muscle actin (aSMact), and stem/progenitor cell marker Cd34 were conducted, as shown in FIG. 3F.\n1 mL of TRIzol reagent (Cat#15596018, ThermoFisher) was added to 100 mg samples of tumor tissue and broken down with a power homogenizer (Polytron/VWR). Homogenized samples were incubated at room temperature for 5 min for complete nucleoprotein dissociation, then 0.2 ml of chloroform (Sigma) was added to each sample. Samples were shaken vigorously for 15 seconds and incubated at room temperature for 3 min before centrifuging at 12,000 g for 15 min at 4° C. The uppermost supernatant layer was pipetted into a 1.7 mL Eppendorf tube, with the remaining interphase and organic layer discarded. 0.5 mL of isopropanol (Sigma) was added to each sample, and then samples were incubated for 10 min. Samples were centrifuged at 12,000 g for 10 min at 4° C. […] Depending on size of resultant pellet, pellets were resuspended in 50-100 μL, and nucleic acid concentration was measured using a NanoDrop 2000 spectrophotometer (ThermoFisher). […]"}}}
{"smiles": "CNC(=O)c1cc(Oc2ccc(NC(=O)Nc3ccc(Cl)c(C(F)(F)F)c3)cc2)ccn1", "note": "[crystalline sorafenib, sorafenib]", "values": [{"measurement": "release of solubilized sorafenib (cumulative)", "setting": "[1]", "result": "tuned by varying crystal"}, {"measurement": "knockdown of VE-Cdh, aSMact and Cd34 (qPCR)", "setting": "VE-Cdh, aSMact, Cd34", "result": "not as significant"}]}
